The test system of experiment [1] is MCC cell lines (WAGA, MKL-1, MKL-2, MCC13, MCC26, UISO). In words: qHTS cell viability, all six MCC cell lines as a group (mean AUC, MCC.avg). Format: cell-based, human. The following applies: NPC library; mean AUC of six MCC cell lines. On the technique in general: In qHTS, concentration-response curves come from the screen itself.
The subject of experiment [2] is UISO cells (VN-MCC). In words: qHTS cell viability (CellTiter-Glo, 72 h; primary and follow-up small molecule screen). Format: cell-based, human. The following applies: NPC library.
In experiment [3] the test system is MCC13 cells (VN-MCC). Described as above. Format: cell-based, human. The following applies: NPC library.
Experiment [4] deals with HACAT cells. In words: qHTS cell viability (CellTiter-Glo, 72 h; primary screen), control cell line. Format: cell-based, human. The following applies: NPC library.
For experiment [5], the system named is CRL-7250 cells. The experiment is described as above. Format: cell-based. The following applies: NPC library.
For experiment [6], the system named is MKL-1 cells (VP-MCC). In words: qHTS cell viability (CellTiter-Glo, 72 h; primary and follow-up small molecule screen). The following applies: NPC library. Format: cell-based, human.
The test system of experiment [7] is six MCC cell lines and four control cell lines. In words: qHTS cell viability, all 10 cell lines screened. Particulars: NPC library. Format: cell-based.
For experiment [8], the system named is NIH-3T3 cells. In words: qHTS cell viability (CellTiter-Glo, 72 h; primary screen), control cell line. Format: cell-based, mouse. The following applies: NPC library.
The test system of experiment [9] is MCC26 cells (VN-MCC). In words: qHTS cell viability (CellTiter-Glo, 72 h; primary and follow-up small molecule screen). The following applies: NPC library. Format: cell-based, human.
Experiment [10] deals with control cell lines (HACAT, HEK293T, CRL-7250, NIH-3T3). In words: qHTS cell viability, control cell lines as a group (mean AUC, Control.avg). Format: cell-based. The following applies: NPC library; mean AUC of control cell lines.
The subject of experiment [11] is MKL-2 cells (VP-MCC). In words: qHTS cell viability (CellTiter-Glo, 72 h; primary and follow-up small molecule screen). Format: cell-based, human. The following applies: NPC library.
Experiment [12] relates to VP-MCC cell lines (WAGA, MKL-1, MKL-2). In words: qHTS cell viability, VP-MCC cell lines as a group (mean AUC, VP.MCC.avg). Format: cell-based, human. The following applies: NPC library; for VP-MCC_Avg_AUC: mean AUC of VP-MCC cell lines.
Experiment [13] deals with WAGA cells (VP-MCC). In words: qHTS cell viability (CellTiter-Glo, 72 h; primary and follow-up small molecule screen). Format: cell-based, human. The following applies: NPC library.
Experiment [14] concerns VN-MCC cell lines (MCC13, MCC26, UISO). In words: qHTS cell viability, VN-MCC cell lines as a group (mean AUC, VN.MCC.avg). The following applies: NPC library; for VN-MCC_Avg_AUC: mean AUC of VN-MCC cell lines. Format: cell-based, human.
In experiment [15] the test system is HEK293T cells. In words: qHTS cell viability (CellTiter-Glo, 72 h; primary screen), control cell line. Format: cell-based, human. The following applies: NPC library.
The mark [16] stands for this setting: 8-point DRC, area under dose-response curve.
Where [17] appears, read: qHTS dose-response AUC, HACAT control.
Where [18] appears, read: qHTS dose-response AUC, CRL7250 control.
Setting [19] is: therapeutic window: Control avg AUC minus MCC avg AUC.
Where [20] appears, read: qHTS dose-response AUC, NIH3T3 control.
The mark [21] stands for this setting: therapeutic window: Control avg AUC minus VP-MCC avg AUC.
[22] abbreviates: therapeutic window: Control avg AUC minus VN-MCC avg AUC.
Where [23] appears, read: qHTS dose-response AUC, HEK293T control.

`Oc1ccc(C2CNCCc3c2cc(O)c(O)c3Cl)cc1` (stereo not drawn) [Fenoldopam] registered an MCC_Avg_AUC in experiment [1] of 444.271. In addition, the UISO_AUC in experiment [2] (setting [16]) is on record as 438.854. In [3] (setting [16]), this molecule had an MCC13_AUC of 446.053. Besides, the HACAT_AUC in [4] (8-point DRC, control cell line) worked out at 491.95. This molecule came in with a CRL7250_AUC in experiment [5] (8-point DRC, control cell line) of 492.55. Also, the MKL1_AUC in experiment [6] (setting [16]) is on record as 451.807. Also, in experiment [7] (Control AUC minus MCC AUC (therapeutic window)), the Control-MCC was found to be 47.2727. The molecule further showed an NIH3T3_AUC in experiment [8] (8-point DRC, control cell line) of 489.56. The MCC26_AUC in [9] (setting [16]) turned out to be 437.226. The molecule further showed a Control_Avg_AUC in experiment [10] of 491.543. In [11] (setting [16]), this molecule displayed an MKL2_AUC of 452.751. In addition, the Control-VP-MCC in experiment [12] (Control AUC minus VP-MCC AUC (therapeutic window)) was 43.713. This molecule also displayed a VP-MCC_Avg_AUC in [12] of 447.83. The WAGA_AUC in experiment [13] (setting [16]) is 438.933. Also, the Control-VN-MCC in [14] (Control AUC minus VN-MCC AUC (therapeutic window)) came out at 50.8323. The VN-MCC_Avg_AUC in experiment [14] was 440.711. Also, in experiment [15] (8-point DRC, control cell line), the HEK293T_AUC is reported as 492.113.

In experiment [1], `OCCN1CCN(CCCN2c3ccccc3Sc3ccc(C(F)(F)F)cc32)CC1` [Fluphenazine] had an MCC_Avg_AUC of 427.186. The UISO_AUC in experiment [2] (qHTS dose-response AUC, UISO) came to 423.342. For the same molecule, the MCC13_AUC in [3] (qHTS dose-response AUC, MCC13) was 444.309. This molecule also returned an HACAT_AUC in experiment [4] (setting [17]) of 491.426. In experiment [5] (setting [18]), this molecule showed a CRL7250_AUC of 486.675. The MKL1_AUC in experiment [6] (qHTS dose-response AUC, MKL1) was 435.034. Further, in experiment [7] (setting [19]), the Control-MCC worked out at 46.1748. The NIH3T3_AUC in experiment [8] (setting [20]) worked out at 476.772. The MCC26_AUC in [9] (qHTS dose-response AUC, MCC26) was found to be 425.402. Further, the Control_Avg_AUC in [10] came to 473.361. Besides, the MKL2_AUC in experiment [11] (qHTS dose-response AUC, MKL2) is recorded as 399.652. This molecule also gave a VP-MCC_Avg_AUC in experiment [12] of 423.354. The molecule further showed a Control-VP-MCC in [12] (setting [21]) of 50.0066. Moreover, the WAGA_AUC in [13] (qHTS dose-response AUC, WAGA) is 435.377. Moreover, in experiment [14], the VN-MCC_Avg_AUC is recorded as 431.018. In addition, the Control-VN-MCC in experiment [14] (setting [22]) is on record as 42.343. Besides, in [15] (setting [23]), the HEK293T_AUC was 438.571.

Molecule `Cl.Cl.Fc1ccc(C(OCCN2CCN(CCCc3ccccc3)CC2)c2ccc(F)cc2)cc1` [GBR 12909 dihydrochloride] returned an MCC_Avg_AUC in experiment [1] of 400.618. Further, the UISO_AUC in [2] (qHTS dose-response AUC, UISO) is 384.769. The MCC13_AUC in experiment [3] (qHTS dose-response AUC, MCC13) turned out to be 436.239. In experiment [4] (setting [17]), the HACAT_AUC was 461.158. This molecule gave a CRL7250_AUC in experiment [5] (setting [18]) of 454.771. Also, the MKL1_AUC in experiment [6] (qHTS dose-response AUC, MKL1) is recorded as 403.123. In experiment [7] (setting [19]), the Control-MCC worked out at 43.7909. The molecule further showed an NIH3T3_AUC in [8] (setting [20]) of 436.091. Further, the MCC26_AUC in experiment [9] (qHTS dose-response AUC, MCC26) came to 404.643. In [10], the Control_Avg_AUC is on record as 444.409. Also, the MKL2_AUC in experiment [11] (qHTS dose-response AUC, MKL2) came to 375.344. Besides, in experiment [12], the VP-MCC_Avg_AUC is recorded as 392.686. The Control-VP-MCC in [12] (setting [21]) is given as 51.7231. The molecule also came in with a WAGA_AUC in experiment [13] (qHTS dose-response AUC, WAGA) of 399.59. The molecule further registered a VN-MCC_Avg_AUC in experiment [14] of 408.55. Further, the Control-VN-MCC in experiment [14] (setting [22]) was determined as 35.8586. The same molecule returned an HEK293T_AUC in experiment [15] (setting [23]) of 425.616.

The values are drawn from PMC11822212, “High-throughput screening identifies Aurora kinase B as a critical therapeutic target for Merkel cell carcinoma” (Nature Communications, 2025).
